Assay results taken from ChEMBL document CHEMBL5465560, “Selectivity Literature for EUbOPEN Chemogenomic Library” (2024).

Experiments:
[1] = biological target: Platelet-derived growth factor receptor alpha (Homo sapiens, UniProt P16234); details: at 10 µM
[2] = biological target: BMP-2-inducible protein kinase (Homo sapiens) (UniProt Q9NSY1); assay: Selectivity interaction (Kinase panel (DSF assay)) EUB0001559a BMP2K
[3] = biological target: Sodium-dependent noradrenaline transporter (Homo sapiens, UniProt P23975); assay: Selectivity interaction (GPCR panel (PDSP screen)) EUB0001079a SLC6A2; details: at 10 µM
Sequence of Sodium-dependent noradrenaline transporter (P23975 whole entry): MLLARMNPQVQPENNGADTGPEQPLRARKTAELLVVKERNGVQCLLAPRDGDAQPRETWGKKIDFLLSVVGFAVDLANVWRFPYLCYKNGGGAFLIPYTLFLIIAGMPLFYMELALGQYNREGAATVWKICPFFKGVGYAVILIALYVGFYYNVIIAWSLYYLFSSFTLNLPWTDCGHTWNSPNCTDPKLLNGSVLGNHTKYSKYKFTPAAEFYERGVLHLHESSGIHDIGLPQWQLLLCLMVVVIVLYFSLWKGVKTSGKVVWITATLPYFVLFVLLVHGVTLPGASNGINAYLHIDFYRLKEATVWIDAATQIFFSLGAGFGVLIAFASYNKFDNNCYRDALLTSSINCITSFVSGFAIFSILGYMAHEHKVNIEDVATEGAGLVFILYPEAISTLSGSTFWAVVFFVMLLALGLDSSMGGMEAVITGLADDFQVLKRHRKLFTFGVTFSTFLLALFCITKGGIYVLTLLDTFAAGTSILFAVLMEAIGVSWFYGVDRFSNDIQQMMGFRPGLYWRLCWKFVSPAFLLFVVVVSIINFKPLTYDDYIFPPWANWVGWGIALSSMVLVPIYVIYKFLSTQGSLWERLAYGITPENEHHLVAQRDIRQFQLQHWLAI

[4] = biological target: Insulin receptor-related protein (Homo sapiens) (UniProt P14616); assay: Selectivity interaction (KinomeScan (DiscoverX)) EUB0000666a INSRR; details: at 10 µM
[5] = biological target: T1, Mitogen-activated protein kinase kinase kinase 13 (Homo sapiens) (UniProt O43283); details: at 10 µM
T1 sequence (whole entry): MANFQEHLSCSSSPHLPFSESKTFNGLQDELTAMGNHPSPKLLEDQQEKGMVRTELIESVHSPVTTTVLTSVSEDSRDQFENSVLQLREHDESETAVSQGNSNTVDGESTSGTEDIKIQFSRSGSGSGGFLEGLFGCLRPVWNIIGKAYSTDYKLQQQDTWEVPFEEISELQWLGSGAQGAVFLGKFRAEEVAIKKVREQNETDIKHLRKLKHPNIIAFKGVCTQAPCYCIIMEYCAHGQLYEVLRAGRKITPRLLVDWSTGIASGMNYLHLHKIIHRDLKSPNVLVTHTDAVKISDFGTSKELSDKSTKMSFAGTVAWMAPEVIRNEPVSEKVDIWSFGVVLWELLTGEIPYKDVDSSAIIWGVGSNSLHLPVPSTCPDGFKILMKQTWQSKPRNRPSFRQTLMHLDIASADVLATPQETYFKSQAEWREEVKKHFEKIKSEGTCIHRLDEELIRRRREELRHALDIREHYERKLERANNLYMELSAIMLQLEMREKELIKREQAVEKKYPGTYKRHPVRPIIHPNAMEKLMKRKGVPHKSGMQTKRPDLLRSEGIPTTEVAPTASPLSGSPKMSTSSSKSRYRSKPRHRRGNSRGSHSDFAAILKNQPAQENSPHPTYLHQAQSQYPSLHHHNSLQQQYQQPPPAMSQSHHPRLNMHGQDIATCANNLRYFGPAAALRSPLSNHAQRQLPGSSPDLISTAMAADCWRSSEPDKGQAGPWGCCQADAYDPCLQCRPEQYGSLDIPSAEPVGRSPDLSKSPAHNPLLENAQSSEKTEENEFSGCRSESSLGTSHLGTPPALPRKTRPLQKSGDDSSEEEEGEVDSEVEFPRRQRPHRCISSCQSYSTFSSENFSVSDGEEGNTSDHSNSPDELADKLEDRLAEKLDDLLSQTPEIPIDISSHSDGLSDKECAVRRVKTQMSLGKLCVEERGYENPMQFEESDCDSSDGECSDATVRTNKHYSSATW

[6] = biological target: T2, Ephrin type-A receptor 8 (Homo sapiens) (UniProt P29322); assay: Selectivity interaction (Kinase panel (Z-LYTE Assay)) EUB0001632a EPHA8; details: at 10 µM
T2 sequence (whole entry): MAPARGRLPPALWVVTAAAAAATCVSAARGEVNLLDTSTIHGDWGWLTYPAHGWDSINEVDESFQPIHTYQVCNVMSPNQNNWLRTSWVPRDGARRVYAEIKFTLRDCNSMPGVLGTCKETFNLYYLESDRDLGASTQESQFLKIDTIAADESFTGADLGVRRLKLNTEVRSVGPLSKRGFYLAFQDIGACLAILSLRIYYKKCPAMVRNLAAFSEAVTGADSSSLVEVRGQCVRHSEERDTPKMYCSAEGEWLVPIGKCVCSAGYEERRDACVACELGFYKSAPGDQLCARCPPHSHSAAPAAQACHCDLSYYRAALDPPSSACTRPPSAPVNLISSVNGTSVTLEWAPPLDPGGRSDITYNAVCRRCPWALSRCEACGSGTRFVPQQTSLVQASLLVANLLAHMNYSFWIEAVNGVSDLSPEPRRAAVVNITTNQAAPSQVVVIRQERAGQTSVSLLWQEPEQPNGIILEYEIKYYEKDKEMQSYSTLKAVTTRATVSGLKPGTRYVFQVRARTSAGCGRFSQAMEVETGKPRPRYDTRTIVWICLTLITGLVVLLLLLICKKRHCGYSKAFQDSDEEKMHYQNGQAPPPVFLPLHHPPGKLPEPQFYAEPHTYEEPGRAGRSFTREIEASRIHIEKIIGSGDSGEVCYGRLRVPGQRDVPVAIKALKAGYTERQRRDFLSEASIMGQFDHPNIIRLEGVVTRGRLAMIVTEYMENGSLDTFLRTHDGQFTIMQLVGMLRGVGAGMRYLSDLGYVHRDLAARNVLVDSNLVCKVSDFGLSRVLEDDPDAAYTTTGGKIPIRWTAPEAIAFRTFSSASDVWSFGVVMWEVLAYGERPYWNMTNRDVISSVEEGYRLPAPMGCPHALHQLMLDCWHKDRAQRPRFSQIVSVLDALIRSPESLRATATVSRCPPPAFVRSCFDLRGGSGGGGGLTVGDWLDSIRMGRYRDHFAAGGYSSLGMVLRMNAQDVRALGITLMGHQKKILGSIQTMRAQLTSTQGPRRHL

[7] = biological target: Casein kinase I isoform delta (Homo sapiens, UniProt P48730); assay: Selectivity interaction (Kinase panel (Z-LYTE Assay)) EUB0001632a CSNK1D; details: at 10 µM
Sequence of Casein kinase I isoform delta (P48730 whole entry, looked up, canonical isoform): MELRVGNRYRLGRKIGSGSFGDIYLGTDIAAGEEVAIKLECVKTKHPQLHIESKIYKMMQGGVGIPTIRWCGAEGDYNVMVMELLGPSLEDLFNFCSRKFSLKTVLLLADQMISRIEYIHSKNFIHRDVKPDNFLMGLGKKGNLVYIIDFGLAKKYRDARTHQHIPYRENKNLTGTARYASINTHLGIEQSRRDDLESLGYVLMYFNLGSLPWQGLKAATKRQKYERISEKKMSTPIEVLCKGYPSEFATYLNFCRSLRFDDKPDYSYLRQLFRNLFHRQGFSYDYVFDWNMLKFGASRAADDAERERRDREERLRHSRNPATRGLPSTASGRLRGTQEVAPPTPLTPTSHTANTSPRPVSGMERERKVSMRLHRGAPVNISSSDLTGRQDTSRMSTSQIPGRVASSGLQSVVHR

[8] = biological target: Ribosomal protein S6 kinase alpha-3 (Homo sapiens, UniProt P51812); assay: Selectivity interaction (ActivX KiNativ screen (kinase selectivity in THP-1 cell lysates)) EUB0000639a RPS6KA3; format: subcellular; details: lysate, at 0.04 µM
[9] = biological target: Mitogen-activated protein kinase 1 (Homo sapiens, UniProt P28482); assay: Selectivity interaction (KinomeScan (DiscoverX)) EUB0000595a MAPK1; details: at 10 µM
Sequence of Mitogen-activated protein kinase 1 (P28482 whole entry): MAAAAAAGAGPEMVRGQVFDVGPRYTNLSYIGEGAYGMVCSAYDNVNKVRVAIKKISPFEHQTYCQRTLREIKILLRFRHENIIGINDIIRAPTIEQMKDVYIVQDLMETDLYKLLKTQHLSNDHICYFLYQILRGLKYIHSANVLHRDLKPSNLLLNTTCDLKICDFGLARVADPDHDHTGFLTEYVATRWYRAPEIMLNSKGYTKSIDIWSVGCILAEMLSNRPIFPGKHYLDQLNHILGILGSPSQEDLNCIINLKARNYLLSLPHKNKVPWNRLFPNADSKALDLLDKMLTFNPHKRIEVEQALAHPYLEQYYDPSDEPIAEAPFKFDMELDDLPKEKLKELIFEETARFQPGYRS

[10] = tested on: Tyrosine-protein kinase ABL1 (Homo sapiens), P00519 [F317L]; assay: Selectivity interaction (Ambit KINOMEscan and KiNATiv profiling in Jurkat cells) EUB0000090b ABL1; format: cell-based; details: at 1 µM
Sequence of Tyrosine-protein kinase ABL1 (Homo sapiens), P00519 [F317L] (P00519 whole entry F317L): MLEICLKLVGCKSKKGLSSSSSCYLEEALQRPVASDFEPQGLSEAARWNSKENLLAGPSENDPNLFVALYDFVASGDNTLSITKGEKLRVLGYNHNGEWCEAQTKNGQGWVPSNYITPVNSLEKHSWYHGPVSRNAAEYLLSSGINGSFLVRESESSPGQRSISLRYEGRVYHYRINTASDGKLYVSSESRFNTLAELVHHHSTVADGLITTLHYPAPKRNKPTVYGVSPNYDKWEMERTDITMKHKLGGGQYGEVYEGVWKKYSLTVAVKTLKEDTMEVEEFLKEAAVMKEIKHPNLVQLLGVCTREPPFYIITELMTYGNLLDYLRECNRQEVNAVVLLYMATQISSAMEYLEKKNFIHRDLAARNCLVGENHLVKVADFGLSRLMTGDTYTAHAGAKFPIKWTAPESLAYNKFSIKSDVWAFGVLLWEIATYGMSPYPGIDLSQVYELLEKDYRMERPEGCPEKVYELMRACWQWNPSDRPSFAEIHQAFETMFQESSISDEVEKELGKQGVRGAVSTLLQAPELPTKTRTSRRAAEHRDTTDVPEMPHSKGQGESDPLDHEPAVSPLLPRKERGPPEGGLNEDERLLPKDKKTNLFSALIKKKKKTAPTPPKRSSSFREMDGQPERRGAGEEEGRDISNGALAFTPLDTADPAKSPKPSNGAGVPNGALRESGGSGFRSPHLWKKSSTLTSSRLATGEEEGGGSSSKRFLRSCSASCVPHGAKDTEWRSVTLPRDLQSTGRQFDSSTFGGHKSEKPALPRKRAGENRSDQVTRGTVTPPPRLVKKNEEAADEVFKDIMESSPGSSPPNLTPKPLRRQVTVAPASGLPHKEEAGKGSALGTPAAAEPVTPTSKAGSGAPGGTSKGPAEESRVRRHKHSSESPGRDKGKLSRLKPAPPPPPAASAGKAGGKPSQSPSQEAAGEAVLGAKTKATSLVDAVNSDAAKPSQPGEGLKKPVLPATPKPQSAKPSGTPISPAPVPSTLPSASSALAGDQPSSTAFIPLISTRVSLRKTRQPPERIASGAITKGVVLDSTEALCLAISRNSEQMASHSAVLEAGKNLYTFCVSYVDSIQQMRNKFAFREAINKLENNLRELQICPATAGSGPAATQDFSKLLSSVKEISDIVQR

Sequence of Platelet-derived growth factor receptor alpha (P16234 whole entry): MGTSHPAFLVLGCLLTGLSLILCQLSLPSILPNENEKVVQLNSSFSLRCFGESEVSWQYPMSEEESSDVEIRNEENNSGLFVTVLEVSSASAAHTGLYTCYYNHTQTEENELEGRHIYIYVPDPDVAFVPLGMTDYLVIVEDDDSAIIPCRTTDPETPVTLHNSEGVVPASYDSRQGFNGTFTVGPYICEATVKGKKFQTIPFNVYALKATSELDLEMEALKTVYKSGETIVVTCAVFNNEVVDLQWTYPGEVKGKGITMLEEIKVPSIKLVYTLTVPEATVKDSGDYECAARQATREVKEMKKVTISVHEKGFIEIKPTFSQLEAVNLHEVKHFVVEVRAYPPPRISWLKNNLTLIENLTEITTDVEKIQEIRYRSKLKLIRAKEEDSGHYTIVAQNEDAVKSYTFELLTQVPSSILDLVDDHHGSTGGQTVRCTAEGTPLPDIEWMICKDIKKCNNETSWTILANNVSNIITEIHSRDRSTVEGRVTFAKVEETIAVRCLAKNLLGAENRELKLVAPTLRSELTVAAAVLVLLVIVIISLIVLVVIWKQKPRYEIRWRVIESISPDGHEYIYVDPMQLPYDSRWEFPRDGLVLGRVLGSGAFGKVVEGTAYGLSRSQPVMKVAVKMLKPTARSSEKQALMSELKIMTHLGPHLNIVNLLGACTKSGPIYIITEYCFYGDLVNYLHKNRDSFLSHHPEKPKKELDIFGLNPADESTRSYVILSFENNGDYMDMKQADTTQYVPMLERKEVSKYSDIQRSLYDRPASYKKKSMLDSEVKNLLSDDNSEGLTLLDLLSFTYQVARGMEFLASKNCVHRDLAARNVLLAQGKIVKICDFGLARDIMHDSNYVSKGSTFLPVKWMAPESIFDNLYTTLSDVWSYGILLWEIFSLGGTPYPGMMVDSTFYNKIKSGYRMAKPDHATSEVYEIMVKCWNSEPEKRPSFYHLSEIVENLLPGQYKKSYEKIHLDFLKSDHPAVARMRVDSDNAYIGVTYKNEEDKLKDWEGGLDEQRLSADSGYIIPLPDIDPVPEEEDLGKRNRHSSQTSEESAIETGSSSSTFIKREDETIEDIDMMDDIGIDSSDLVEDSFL
Sequence of BMP-2-inducible protein kinase (Homo sapiens) (Q9NSY1 whole entry, looked up): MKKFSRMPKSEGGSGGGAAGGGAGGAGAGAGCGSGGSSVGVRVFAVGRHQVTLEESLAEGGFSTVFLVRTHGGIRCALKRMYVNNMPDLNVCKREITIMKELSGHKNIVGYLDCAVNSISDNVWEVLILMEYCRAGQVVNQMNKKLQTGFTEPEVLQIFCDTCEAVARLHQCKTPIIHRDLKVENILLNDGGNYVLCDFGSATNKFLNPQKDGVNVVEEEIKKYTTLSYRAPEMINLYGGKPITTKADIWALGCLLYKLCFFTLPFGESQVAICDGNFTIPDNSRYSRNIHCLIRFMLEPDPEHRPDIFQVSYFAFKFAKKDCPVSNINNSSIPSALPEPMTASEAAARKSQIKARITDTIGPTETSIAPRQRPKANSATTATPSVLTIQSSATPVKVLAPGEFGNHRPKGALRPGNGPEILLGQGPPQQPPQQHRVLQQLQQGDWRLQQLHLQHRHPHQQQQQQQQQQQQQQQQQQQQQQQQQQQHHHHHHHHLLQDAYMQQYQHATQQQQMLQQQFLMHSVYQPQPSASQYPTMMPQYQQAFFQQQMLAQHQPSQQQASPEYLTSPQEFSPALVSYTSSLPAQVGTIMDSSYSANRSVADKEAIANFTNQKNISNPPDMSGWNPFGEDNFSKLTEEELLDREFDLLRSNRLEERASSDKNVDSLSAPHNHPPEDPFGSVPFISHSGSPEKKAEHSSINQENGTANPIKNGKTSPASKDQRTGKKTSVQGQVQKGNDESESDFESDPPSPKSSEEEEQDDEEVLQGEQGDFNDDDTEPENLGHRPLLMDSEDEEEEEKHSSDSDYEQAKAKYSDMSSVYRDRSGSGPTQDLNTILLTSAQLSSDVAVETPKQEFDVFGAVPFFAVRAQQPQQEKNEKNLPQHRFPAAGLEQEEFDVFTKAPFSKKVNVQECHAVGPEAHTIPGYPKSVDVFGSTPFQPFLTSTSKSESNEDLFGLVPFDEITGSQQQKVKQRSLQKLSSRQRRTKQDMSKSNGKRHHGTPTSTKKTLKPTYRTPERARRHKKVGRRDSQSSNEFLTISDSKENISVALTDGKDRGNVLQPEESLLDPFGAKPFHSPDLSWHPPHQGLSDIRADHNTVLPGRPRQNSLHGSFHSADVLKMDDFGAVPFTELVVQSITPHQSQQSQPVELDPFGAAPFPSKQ

Structure (SMILES): CCN(CC)CCCCNc1ncc2cc(-c3cc(OC)cc(OC)c3)c(NC(=O)NC(C)(C)C)nc2n1
- % of control [1]: 100%

Structure (SMILES): CN(C(=O)c1cnn2cccnc12)c1cc2c(cc1N1CCOCC1)C(=O)N(C[C@@H](F)C(C)(C)O)C2
- dTM [2]: -0.2 K

Structure (SMILES): Nc1cnc(N2CCc3cc(S(=O)(=O)Nc4c(F)cc(Cl)cc4F)cc(N4CCCC4=O)c32)nc1 [TP-020n]
- % of inhibition [3]: 18.2%

Structure (SMILES): O=C(NOC[C@H](O)CO)c1ccc(F)c(F)c1Nc1ccc(I)cc1F
- % of control [4]: 81%

Structure (SMILES): Cc1cc([C@@H](C)Nc2ccccc2C(=O)O)c2nc(N3CCOCC3)cc(=O)n2c1 [AZD-6482]
- % of control [5]: 100%

Structure (SMILES): Cn1cc(-n2cnc3c(NCc4nc5cc(Cl)c(Cl)cc5[nH]4)nc(N4CCOCC4)nc32)cn1
- % of control [6]: -0.692%
- % of control [7]: 23.3%

Structure (SMILES): CC[C@@H]1[C@H](F)C(=O)N[C@@H]1COc1nccc2cc(C(N)=O)c(OC)cc12 [ZIMLOVISERTIB]
- % of inhibition [8]: 16.1%

Structure (SMILES): COCC(=O)NC/C=C/c1ccc2ncnc(Nc3ccc(Oc4ccc(C)nc4)c(C)c3)c2c1 [CP-724714]
- % of control [9]: 100%

Structure (SMILES): CN(C)C/C=C/C(=O)Nc1ccc(C(=O)N2CCCC(Nc3ncc(Cl)c(-c4c[nH]c5ccccc45)n3)C2)cc1 (stereo not given)
- % of control [10]: 100%
